The term Kd denotes the equilibrium constant for the complex coming apart.

Data on three molecules can be found in ChEMBL document CHEMBL3991601, “The target landscape of clinical kinase drugs” (Science, 2017).

Active and inactive are the calls of the source. Rule as the data show it, for most assays here: actives have a measured Kd and inactives only a lower limit.

For assay [1], the target named is LIM domain kinase 1 (Homo sapiens, UniProt P53667).
Assay [2] deals with Serine/threonine-protein kinase 10 (Homo sapiens, UniProt O94804).
Serine/threonine-protein kinase 10, sequence (O94804 whole entry): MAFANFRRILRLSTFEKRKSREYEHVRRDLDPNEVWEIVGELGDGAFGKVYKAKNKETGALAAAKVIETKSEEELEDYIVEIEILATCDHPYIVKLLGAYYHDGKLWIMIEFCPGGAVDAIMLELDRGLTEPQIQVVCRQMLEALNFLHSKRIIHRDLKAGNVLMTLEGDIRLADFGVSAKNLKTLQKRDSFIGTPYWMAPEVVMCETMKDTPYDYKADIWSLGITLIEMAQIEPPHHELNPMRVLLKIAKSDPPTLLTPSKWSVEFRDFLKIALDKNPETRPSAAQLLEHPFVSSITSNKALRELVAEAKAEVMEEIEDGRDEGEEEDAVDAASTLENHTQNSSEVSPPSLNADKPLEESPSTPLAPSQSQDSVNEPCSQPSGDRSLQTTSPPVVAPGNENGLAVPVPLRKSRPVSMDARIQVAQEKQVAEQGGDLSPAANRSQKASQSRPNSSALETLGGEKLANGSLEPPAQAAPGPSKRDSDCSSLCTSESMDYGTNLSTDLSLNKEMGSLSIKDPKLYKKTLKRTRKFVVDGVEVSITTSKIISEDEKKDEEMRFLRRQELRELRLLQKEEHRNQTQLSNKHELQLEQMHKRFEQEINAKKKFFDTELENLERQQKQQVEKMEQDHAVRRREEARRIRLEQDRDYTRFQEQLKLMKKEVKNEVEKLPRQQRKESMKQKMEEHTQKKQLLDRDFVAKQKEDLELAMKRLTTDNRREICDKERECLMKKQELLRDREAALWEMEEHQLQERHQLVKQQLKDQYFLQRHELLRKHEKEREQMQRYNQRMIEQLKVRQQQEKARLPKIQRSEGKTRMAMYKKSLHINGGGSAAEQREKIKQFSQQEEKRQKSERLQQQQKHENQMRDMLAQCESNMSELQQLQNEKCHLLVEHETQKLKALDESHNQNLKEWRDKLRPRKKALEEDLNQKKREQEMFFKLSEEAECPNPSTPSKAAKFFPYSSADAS
The target in assay [3] is T1, Dual specificity mitogen-activated protein kinase kinase 3 (Homo sapiens, UniProt P46734).
T1 sequence (P46734 whole entry): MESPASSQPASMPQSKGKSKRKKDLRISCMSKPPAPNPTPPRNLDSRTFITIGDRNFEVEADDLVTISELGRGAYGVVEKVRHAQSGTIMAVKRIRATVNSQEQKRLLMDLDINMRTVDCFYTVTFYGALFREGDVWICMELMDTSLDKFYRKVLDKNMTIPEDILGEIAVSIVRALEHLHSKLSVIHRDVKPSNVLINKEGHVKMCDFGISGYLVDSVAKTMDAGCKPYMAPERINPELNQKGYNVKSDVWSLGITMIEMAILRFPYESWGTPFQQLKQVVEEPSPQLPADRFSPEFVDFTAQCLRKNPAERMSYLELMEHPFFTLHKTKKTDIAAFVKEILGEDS

The target of assay [4] is T2, Interleukin-1 receptor-associated kinase 4 (Homo sapiens, UniProt Q9NWZ3).
T2 sequence (Q9NWZ3 whole entry): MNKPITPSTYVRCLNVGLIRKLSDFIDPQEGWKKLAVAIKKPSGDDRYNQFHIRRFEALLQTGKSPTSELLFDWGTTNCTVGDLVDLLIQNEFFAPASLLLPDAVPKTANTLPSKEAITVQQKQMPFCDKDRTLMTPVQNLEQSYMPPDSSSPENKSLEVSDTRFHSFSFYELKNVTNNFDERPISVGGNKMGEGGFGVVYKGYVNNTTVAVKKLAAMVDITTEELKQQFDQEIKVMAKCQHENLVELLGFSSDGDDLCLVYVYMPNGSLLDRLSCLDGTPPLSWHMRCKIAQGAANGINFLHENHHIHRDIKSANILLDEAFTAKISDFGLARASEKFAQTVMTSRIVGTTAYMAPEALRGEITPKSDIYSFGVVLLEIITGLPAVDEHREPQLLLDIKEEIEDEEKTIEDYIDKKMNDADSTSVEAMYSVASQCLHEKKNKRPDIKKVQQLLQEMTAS

Assay [5] deals with T3, Serine/threonine-protein kinase A-Raf (Homo sapiens, UniProt P10398).
T3 sequence (P10398 whole entry): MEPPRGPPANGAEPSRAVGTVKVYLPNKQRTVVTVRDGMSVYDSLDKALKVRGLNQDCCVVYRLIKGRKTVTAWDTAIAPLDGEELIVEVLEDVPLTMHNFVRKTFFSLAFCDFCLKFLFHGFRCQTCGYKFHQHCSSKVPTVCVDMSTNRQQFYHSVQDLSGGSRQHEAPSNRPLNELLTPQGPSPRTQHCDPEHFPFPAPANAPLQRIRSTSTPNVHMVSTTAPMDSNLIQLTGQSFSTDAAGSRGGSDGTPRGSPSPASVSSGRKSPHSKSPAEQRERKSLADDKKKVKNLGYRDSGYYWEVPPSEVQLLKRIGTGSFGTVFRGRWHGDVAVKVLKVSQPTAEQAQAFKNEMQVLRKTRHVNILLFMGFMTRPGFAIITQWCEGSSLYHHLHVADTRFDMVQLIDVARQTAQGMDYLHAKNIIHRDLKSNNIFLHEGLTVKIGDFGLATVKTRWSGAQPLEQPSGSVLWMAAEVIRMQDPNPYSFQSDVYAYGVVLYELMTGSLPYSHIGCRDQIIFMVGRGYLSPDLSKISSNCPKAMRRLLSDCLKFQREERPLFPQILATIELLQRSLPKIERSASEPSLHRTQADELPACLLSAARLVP

Assay [6] deals with Tyrosine-protein kinase Lck (Homo sapiens, UniProt P06239).
Tyrosine-protein kinase Lck, sequence (P06239 whole entry): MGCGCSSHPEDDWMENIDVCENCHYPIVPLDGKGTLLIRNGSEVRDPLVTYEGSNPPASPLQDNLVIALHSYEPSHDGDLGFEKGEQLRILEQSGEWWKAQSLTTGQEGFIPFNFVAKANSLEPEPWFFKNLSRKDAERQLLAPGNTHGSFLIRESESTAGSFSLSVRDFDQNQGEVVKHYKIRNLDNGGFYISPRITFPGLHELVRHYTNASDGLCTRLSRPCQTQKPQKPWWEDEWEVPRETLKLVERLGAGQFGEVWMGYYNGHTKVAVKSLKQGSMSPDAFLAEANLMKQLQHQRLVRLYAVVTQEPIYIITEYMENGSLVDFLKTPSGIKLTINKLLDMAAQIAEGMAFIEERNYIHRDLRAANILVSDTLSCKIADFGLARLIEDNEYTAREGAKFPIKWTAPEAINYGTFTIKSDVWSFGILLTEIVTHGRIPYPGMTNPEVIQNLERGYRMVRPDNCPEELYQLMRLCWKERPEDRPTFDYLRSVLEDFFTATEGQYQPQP
Assay [7] addresses T4, Mitogen-activated protein kinase kinase kinase 2 (Homo sapiens, UniProt Q9Y2U5).
T4 sequence (Q9Y2U5 whole entry): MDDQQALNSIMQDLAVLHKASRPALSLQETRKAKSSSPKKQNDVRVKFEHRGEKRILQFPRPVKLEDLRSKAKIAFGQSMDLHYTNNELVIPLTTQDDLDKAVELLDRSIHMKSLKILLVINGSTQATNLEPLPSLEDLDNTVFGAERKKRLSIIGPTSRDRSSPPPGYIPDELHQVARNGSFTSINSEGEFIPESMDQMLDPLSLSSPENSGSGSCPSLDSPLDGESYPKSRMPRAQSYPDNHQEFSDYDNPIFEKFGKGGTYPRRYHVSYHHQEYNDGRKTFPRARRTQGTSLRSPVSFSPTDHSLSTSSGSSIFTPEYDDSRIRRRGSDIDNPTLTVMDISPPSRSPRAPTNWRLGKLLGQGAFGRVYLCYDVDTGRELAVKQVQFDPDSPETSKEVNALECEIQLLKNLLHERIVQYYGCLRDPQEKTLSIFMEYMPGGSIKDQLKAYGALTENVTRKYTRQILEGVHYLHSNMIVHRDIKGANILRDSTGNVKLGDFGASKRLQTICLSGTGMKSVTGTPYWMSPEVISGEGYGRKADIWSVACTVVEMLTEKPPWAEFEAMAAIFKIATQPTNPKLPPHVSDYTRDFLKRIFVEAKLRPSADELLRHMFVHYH

The target of assay [8] is Citron Rho-interacting kinase (Homo sapiens, UniProt O14578).
Citron Rho-interacting kinase, sequence (O14578 whole entry): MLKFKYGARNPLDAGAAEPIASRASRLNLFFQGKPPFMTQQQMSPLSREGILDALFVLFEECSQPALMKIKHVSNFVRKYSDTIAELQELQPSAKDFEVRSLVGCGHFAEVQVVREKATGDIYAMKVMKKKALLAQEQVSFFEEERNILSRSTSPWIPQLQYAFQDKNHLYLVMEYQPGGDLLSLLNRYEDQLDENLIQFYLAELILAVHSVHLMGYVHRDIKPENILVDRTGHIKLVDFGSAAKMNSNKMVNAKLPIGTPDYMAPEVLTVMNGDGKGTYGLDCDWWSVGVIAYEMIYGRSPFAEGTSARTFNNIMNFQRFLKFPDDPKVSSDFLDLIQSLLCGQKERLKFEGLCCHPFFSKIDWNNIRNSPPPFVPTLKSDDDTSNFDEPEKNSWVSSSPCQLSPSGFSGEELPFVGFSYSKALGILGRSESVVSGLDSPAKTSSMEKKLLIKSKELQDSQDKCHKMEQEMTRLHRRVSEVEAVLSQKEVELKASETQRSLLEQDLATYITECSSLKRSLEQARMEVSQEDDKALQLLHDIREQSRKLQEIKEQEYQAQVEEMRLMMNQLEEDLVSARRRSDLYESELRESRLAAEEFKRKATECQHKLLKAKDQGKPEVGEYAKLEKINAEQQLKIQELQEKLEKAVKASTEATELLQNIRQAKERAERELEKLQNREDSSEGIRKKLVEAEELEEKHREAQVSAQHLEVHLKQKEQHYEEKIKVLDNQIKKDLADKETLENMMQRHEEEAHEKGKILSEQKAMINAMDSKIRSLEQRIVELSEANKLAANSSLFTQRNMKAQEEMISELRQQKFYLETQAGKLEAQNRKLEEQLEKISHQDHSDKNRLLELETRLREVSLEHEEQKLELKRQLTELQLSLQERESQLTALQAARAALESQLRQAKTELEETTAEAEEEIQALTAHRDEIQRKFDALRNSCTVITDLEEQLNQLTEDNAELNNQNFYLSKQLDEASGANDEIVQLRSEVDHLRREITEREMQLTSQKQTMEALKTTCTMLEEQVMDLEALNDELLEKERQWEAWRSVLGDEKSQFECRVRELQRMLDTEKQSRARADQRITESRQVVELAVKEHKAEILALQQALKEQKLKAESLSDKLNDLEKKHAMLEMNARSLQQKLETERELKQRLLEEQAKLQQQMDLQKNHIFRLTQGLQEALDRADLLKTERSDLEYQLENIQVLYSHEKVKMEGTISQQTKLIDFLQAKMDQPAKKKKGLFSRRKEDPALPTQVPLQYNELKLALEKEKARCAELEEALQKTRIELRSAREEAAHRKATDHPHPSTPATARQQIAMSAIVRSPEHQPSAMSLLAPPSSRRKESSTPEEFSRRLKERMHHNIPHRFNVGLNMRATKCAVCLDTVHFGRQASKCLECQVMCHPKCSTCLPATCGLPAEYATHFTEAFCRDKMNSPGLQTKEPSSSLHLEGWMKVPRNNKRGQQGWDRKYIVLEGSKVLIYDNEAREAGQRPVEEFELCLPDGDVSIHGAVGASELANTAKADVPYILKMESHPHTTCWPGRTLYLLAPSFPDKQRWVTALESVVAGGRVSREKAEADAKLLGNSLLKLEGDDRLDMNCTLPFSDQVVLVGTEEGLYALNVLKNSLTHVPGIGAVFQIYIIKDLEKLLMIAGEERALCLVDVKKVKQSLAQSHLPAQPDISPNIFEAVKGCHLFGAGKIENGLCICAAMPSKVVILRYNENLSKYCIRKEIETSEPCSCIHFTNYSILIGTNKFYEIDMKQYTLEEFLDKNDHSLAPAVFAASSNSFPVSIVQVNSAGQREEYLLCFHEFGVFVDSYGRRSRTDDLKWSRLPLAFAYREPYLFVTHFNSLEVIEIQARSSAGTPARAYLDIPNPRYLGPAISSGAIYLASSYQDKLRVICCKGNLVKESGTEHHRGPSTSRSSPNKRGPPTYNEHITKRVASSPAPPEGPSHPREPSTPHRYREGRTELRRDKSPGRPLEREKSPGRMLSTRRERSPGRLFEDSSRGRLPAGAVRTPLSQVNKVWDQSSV
Also: in the data inactive means no Kd found up to 30 µM.

LIM domain kinase 1, sequence (P53667 whole entry, the tested form may be a part): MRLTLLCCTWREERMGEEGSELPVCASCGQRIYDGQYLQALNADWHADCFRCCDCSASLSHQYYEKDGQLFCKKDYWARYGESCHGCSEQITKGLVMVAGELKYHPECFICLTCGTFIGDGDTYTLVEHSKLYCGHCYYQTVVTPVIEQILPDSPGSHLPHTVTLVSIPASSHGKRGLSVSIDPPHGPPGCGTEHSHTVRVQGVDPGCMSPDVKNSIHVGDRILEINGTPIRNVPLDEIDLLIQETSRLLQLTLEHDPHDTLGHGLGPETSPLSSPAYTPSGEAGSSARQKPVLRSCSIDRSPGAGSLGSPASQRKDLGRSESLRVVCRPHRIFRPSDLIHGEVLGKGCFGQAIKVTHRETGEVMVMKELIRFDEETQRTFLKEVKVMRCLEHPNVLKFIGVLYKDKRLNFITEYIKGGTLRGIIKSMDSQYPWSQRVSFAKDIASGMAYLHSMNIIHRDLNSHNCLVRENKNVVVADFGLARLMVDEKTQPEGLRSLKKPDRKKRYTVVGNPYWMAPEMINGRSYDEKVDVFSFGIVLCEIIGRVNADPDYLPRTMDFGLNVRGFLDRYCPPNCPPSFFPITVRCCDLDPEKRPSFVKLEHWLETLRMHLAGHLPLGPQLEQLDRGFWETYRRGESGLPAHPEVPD

Turning to `CC(C)c1cc(CNc2nc(Nc3cc(C4CC4)[nH]n3)cc(N3CCN(C)CC3)n2)on1` [XL-228], the Kd in assay [1] is 2.07 µM (active); in assay [2], 0.379 µM (active); in assay [3], > 30 µM (inactive); in assay [4] it was > 30 µM (inactive); in assay [5] it was > 30 µM (inactive); in assay [6], 0.166 µM (active). For the same molecule, the Kd in assay [7] and in assay [8] was > 30 µM (inactive) in each case.

Regarding `C[C@@H](N)c1ccc(C(=O)Nc2ccnc3[nH]ccc23)cc1` [Y-39983], the Kd in assay [1], in assay [2], in assay [3], in assay [4], in assay [5] and in assay [6] was > 30 µM (inactive) throughout. The Kd in assay [7] was > 30 µM (inactive); in assay [8], 0.033 µM (active).

Turning to `CN1C/C=C/CCOc2cccc(c2)-c2ccnc(n2)Nc2cccc(c2)C1` [ZOTIRACICLIB], the Kd in assay [1] was > 30 µM (inactive); in assay [2], 9.95 µM (active); in assay [3] it was > 30 µM (inactive); in assay [4], > 30 µM (inactive); in assay [5], > 30 µM (inactive); in assay [6] it was > 30 µM (inactive). Further, the Kd in assay [7] and in assay [8] was > 30 µM (inactive) each time.
